{"source": "ChEMBL document CHEMBL1201862", "about": "“PubChem BioAssay data set” (2004)", "assay_in_all_cases": "NCI-60 cell line screen, 48 h", "key": {"[1]": {"test_system": "MCF7"}, "[2]": {"test_system": "EKVX"}, "[3]": {"test_system": "HCT-116"}, "[4]": {"test_system": "T47D"}, "[5]": {"test_system": "SK-OV-3"}, "[6]": {"test_system": "SR"}, "[7]": {"test_system": "NCI-H460"}, "[8]": {"test_system": "HL-60"}, "[9]": {"test_system": "SK-MEL-28"}, "[10]": {"test_system": "786-0"}, "[11]": {"test_system": "NCI/ADR-RES"}, "[12]": {"test_system": "LOX IMVI"}, "[13]": {"test_system": "HCT-15"}, "[14]": {"test_system": "IGROV-1"}, "[15]": {"test_system": "SK-MEL-5"}, "[16]": {"test_system": "RPMI-8226"}, "[17]": {"test_system": "MDA-N"}, "[18]": {"test_system": "A549"}, "[19]": {"test_system": "SK-MEL-2"}, "[20]": {"test_system": "SN12C"}, "[21]": {"test_system": "TK-10"}, "[22]": {"test_system": "OVCAR-5"}, "[23]": {"test_system": "MDA-MB-231"}, "[24]": {"test_system": "ACHN"}, "[25]": {"test_system": "SF-268"}, "[26]": {"test_system": "CAKI-1"}, "[27]": {"test_system": "HT-29"}, "[28]": {"test_system": "OVCAR-4"}, "[29]": {"test_system": "SF-539"}, "[30]": {"test_system": "CCRF-CEM"}, "[31]": {"test_system": "SF-295"}, "[32]": {"test_system": "OVCAR-8"}, "[33]": {"test_system": "NCI-H23"}, "[34]": {"test_system": "OVCAR-3"}, "[35]": {"test_system": "MOLT-4"}, "[36]": {"test_system": "HOP-92"}, "[37]": {"test_system": "Malme-3M"}, "[38]": {"test_system": "DU-145"}, "[39]": {"test_system": "SNB-19"}, "[40]": {"test_system": "SW-620"}, "[41]": {"test_system": "UACC-257"}, "[42]": {"test_system": "HOP-62"}, "[43]": {"test_system": "KM12"}, "[44]": {"test_system": "COLO 205"}, "[45]": {"test_system": "K562"}, "[46]": {"test_system": "PC-3"}, "[47]": {"test_system": "Hs-578T"}, "[48]": {"test_system": "SNB-75"}, "[49]": {"test_system": "M14"}, "[50]": {"test_system": "A498"}, "[51]": {"test_system": "U-251"}, "[52]": {"test_system": "UO-31"}, "[53]": {"test_system": "HCC 2998"}, "[54]": {"test_system": "MDA-MB-435"}, "[55]": {"test_system": "NCI-H522"}}, "note": "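Each compound was tested at five concentrations against cells in 96-well plates for 48 hours. GI50: concentration for 50% inhibition of growth.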 Calls of active or inactive are those of the source. No stated cut-off is given here; in the data, active = GI50 up to about 1.1 µM and inactive = higher.", "data": [{"compound": "CC1CN=C(N(C(=O)Nc2ccc(F)c(Cl)c2)c2ccccc2)S1", "note": "(configuration not stated)", "values": [{"measurement": "GI50", "setting": "[1]", "result": "10.4 µM (inactive)"}, {"measurement": "GI50", "setting": "[2]", "result": "22 µM (inactive)"}, {"measurement": "GI50", "setting": "[3]", "result": "21.5 µM (inactive)"}, {"measurement": "GI50", "setting": "[4]", "result": "16.8 µM (inactive)"}, {"measurement": "GI50", "setting": "[5]", "result": "33.6 µM (inactive)"}, {"measurement": "GI50", "setting": "[6]", "result": "> 10 µM (inactive)"}, {"measurement": "GI50", "setting": "[7]", "result": "25.4 µM (inactive)"}, {"measurement": "GI50", "setting": "[8]", "result": "> 10 µM (inactive)"}, {"measurement": "GI50", "setting": "[9]", "result": "15.1 µM (inactive)"}, {"measurement": "GI50", "setting": "[10]", "result": "22.9 µM (inactive)"}, {"measurement": "GI50", "setting": "[11]", "result": "17.9 µM (inactive)"}, {"measurement": "GI50", "setting": "[12]", "result": "17.5 µM (inactive)"}, {"measurement": "GI50", "setting": "[13]", "result": 22.4, "unit": "µM"}, {"measurement": "GI50", "setting": "[14]", "result": "27.8 µM (inactive)"}, {"measurement": "GI50", "setting": "[15]", "result": "16.4 µM (inactive)"}, {"measurement": "GI50", "setting": "[16]", "result": "25.8 µM (inactive)"}, {"measurement": "GI50", "setting": "[17]", "result": "18.9 µM (inactive)"}, {"measurement": "GI50", "setting": "[18]", "result": "24.2 µM (inactive)"}, {"measurement": "GI50", "setting": "[19]", "result": "17.5 µM (inactive)"}, {"measurement": "GI50", "setting": "[20]", "result": "17.2 µM (inactive)"}, {"measurement": "GI50", "setting": "[21]", "result": "25.9 µM (inactive)"}, {"measurement": "GI50", "setting": "[22]", "result": "28.2 µM (inactive)"}, {"measurement": "GI50", "setting": "[23]", "result": "17.7 µM (inactive)"}, {"measurement": "GI50", "setting": "[24]", "result": "25.5 µM (inactive)"}, {"measurement": "GI50", "setting": "[25]", "result": "27.5 µM (inactive)"}, {"measurement": "GI50", "setting": "[26]", "result": "21 µM (inactive)"}, {"measurement": "GI50", "setting": "[27]", "result": "22.9 µM (inactive)"}, {"measurement": "GI50", "setting": "[28]", "result": "48.3 µM (inactive)"}, {"measurement": "GI50", "setting": "[29]", "result": "41.1 µM (inactive)"}, {"measurement": "GI50", "setting": "[30]", "result": "31.3 µM (inactive)"}, {"measurement": "GI50", "setting": "[31]", "result": "31.3 µM (inactive)"}, {"measurement": "GI50", "setting": "[32]", "result": "23.9 µM (inactive)"}, {"measurement": "GI50", "setting": "[33]", "result": "19.2 µM (inactive)"}, {"measurement": "GI50", "setting": "[34]", "result": "34.5 µM (inactive)"}, {"measurement": "GI50", "setting": "[35]", "result": "16.7 µM (inactive)"}, {"measurement": "GI50", "setting": "[36]", "result": "20.3 µM (inactive)"}, {"measurement": "GI50", "setting": "[37]", "result": "30.3 µM (inactive)"}, {"measurement": "GI50", "setting": "[38]", "result": "36.8 µM (inactive)"}, {"measurement": "GI50", "setting": "[39]", "result": "43.2 µM (inactive)"}, {"measurement": "GI50", "setting": "[40]", "result": "27.5 µM (inactive)"}, {"measurement": "GI50", "setting": "[41]", "result": "24.6 µM (inactive)"}, {"measurement": "GI50", "setting": "[42]", "result": "27.6 µM (inactive)"}, {"measurement": "GI50", "setting": "[43]", "result": "26.5 µM (inactive)"}, {"measurement": "GI50", "setting": "[44]", "result": "19.3 µM (inactive)"}, {"measurement": "GI50", "setting": "[45]", "result": "27 µM (inactive)"}, {"measurement": "GI50", "setting": "[46]", "result": "24.1 µM (inactive)"}, {"measurement": "GI50", "setting": "[47]", "result": "38.5 µM (inactive)"}, {"measurement": "GI50", "setting": "[48]", "result": "23.2 µM (inactive)"}, {"measurement": "GI50", "setting": "[49]", "result": "28.4 µM (inactive)"}, {"measurement": "GI50", "setting": "[50]", "result": "21.1 µM (inactive)"}, {"measurement": "GI50", "setting": "[51]", "result": "20.6 µM (inactive)"}, {"measurement": "GI50", "setting": "[52]", "result": "25.8 µM (inactive)"}]}, {"compound": "CC(=O)O[C@H]1C(=O)[C@@]2(C)C(C(OC(=O)c3ccccc3)[C@]3(O)CC(OC(=O)[C@H](OC(=O)CCC(=O)O)C(NC(=O)c4ccccc4)c4ccccc4)C(C)=C1C3(C)C)C1(OC(C)=O)COC1C[C@@H]2O", "note": "(some centres not stated)", "values": [{"measurement": "GI50", "setting": "[4]", "result": "< 0.0203 µM (active)"}, {"measurement": "GI50", "setting": "[6]", "result": "< 0.01 µM (active)"}, {"measurement": "GI50", "setting": "[7]", "result": "< 0.01 µM (active)"}, {"measurement": "GI50", "setting": "[12]", "result": "< 0.0122 µM (active)"}, {"measurement": "GI50", "setting": "[13]", "result": 1.53, "unit": "µM"}, {"measurement": "GI50", "setting": "[14]", "result": "0.0103 µM (active)"}, {"measurement": "GI50", "setting": "[15]", "result": "< 0.01 µM (active)"}, {"measurement": "GI50", "setting": "[18]", "result": "< 0.0199 µM (active)"}, {"measurement": "GI50", "setting": "[21]", "result": "0.265 µM (active)"}, {"measurement": "GI50", "setting": "[25]", "result": "< 0.0166 µM (active)"}, {"measurement": "GI50", "setting": "[26]", "result": "3.75 µM (inactive)"}, {"measurement": "GI50", "setting": "[27]", "result": "< 0.01 µM (active)"}, {"measurement": "GI50", "setting": "[28]", "result": "17.1 µM (inactive)"}, {"measurement": "GI50", "setting": "[53]", "result": "0.0191 µM (active)"}, {"measurement": "GI50", "setting": "[34]", "result": "< 0.01 µM (active)"}, {"measurement": "GI50", "setting": "[35]", "result": "< 0.0156 µM (active)"}, {"measurement": "GI50", "setting": "[39]", "result": "0.0306 µM (active)"}, {"measurement": "GI50", "setting": "[40]", "result": "< 0.01 µM (active)"}, {"measurement": "GI50", "setting": "[43]", "result": "< 0.01 µM (active)"}, {"measurement": "GI50", "setting": "[44]", "result": "< 0.01 µM (active)"}, {"measurement": "GI50", "setting": "[45]", "result": "< 0.01 µM (active)"}, {"measurement": "GI50", "setting": "[46]", "result": "< 0.01 µM (active)"}, {"measurement": "GI50", "setting": "[47]", "result": "< 0.01 µM (active)"}, {"measurement": "GI50", "setting": "[51]", "result": "< 0.01 µM (active)"}]}, {"compound": "Nc1ccn([C@@H]2CS[C@H](CO)O2)c(=O)n1", "note": "[LAMIVUDINE]", "values": [{"measurement": "GI50", "setting": "[33]", "result": "> 100 µM (inactive)"}]}, {"compound": "COc1cc(O)c2c(=O)c(OC)c(-c3ccc(OC)c(OC)c3)oc2c1", "note": "[RETUSIN]", "values": [{"measurement": "GI50", "setting": "[54]", "result": "> 100 µM (inactive)"}, {"measurement": "GI50", "setting": "[5]", "result": "5.02 µM (inactive)"}, {"measurement": "GI50", "setting": "[7]", "result": "20 µM (inactive)"}, {"measurement": "GI50", "setting": "[13]", "result": "> 100", "unit": "µM"}, {"measurement": "GI50", "setting": "[16]", "result": "87.7 µM (inactive)"}, {"measurement": "GI50", "setting": "[21]", "result": "> 100 µM (inactive)"}, {"measurement": "GI50", "setting": "[26]", "result": "6.17 µM (inactive)"}, {"measurement": "GI50", "setting": "[30]", "result": "> 100 µM (inactive)"}, {"measurement": "GI50", "setting": "[55]", "result": "2.79 µM (inactive)"}, {"measurement": "GI50", "setting": "[40]", "result": "> 100 µM (inactive)"}, {"measurement": "GI50", "setting": "[41]", "result": "> 100 µM (inactive)"}, {"measurement": "GI50", "setting": "[44]", "result": "> 100 µM (inactive)"}, {"measurement": "GI50", "setting": "[50]", "result": "16.1 µM (inactive)"}, {"measurement": "GI50", "setting": "[51]", "result": "15.1 µM (inactive)"}, {"measurement": "GI50", "setting": "[52]", "result": "> 100 µM (inactive)"}]}]}
